Assays:
[1] = system: mPTP; assay: mPTP activity (Ca2+ retention) assay in isolated rat liver mitochondria; format: biochemical; details: examples tested by different contract research organisations, believed comparable
Summary of the method: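 pIC50 was taken from Fluo5N fluorescence at 10 min after a 75 μM CaCl2 bolus, scaled between DMSO (0%) and 5 μM cyclosporin A (100%). Compounds, ten half-log concentrations from 30 μM to 1 nM final, sat 10 min at RT with fresh female Sprague Dawley rat liver mitochondria energized by succinate plus rotenone.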

[2] = system: mPTP; assay: mPTP activity assay in isolated rat brain mitochondria; format: biochemical; details: for mPTP Rat brain pIC50: fluorescence at 10 min timepoint
Method: MPTP activity was measured in brain mitochondria freshly isolated from female Sprague Dawley (250 to 300 gram) rats. Anaesthetised rats were perfused in-situ with −40 ml cold Dulbecco's Phosphate Buffered Saline (DPBS), then brains dissected and transferred into 30 ml Isolation Buffer (225 mM mannitol, 75 mM sucrose, 1 mM EGTA, adjusted to pH 7.4 with 1M NaOH). The brain was minced using tweezers and a scalpel into −5 mm pieces then transferred into a 50 ml Potterton Dounce homogenization tube on ice containing 10 ml ice-cold isolation buffer (as above with addition of Complete Protease inhibitor; 1 tablet per 50 ml buffer). Homogenisation was carried out using a teflon pestle at 1800 rpm. The slurry was centrifuged at 2000 g for 10 min at 4° C., then the supernatant centrifuged at 12,000 g for 9 min. The pellet was resuspended with a dounce homogeniser in isolation buffer as above but with the addition of 0.02% digitonin, centrifuged at 12,000 g for 11 min and finally resuspended in 5 ml modified isolation buffer (as above but with EGTA reduced to 0.1 mM).
Test compounds were prepared in 384 well polypropylene assay plates as described above for the liver mitochondria assay. A stock mitochondria/Fluo5N assay solution was prepared in 5.6 ml assay buffer (120 mM mannitol, 40 mM MOPS, 5 mM KH2PO4, 60 mM KCl, 10 mM pyruvate, 2 mM malate, 2 mM MgCl2, 20 μM ADP, 1.26 μM oligomycin A, adjusted to pH 7.4) supplemented with Fluo5N pentapotassium salt (2 μM) and 1 ml mitochondria suspension, then transferred (15 μl) into the assay plate containing test compounds and incubated for 10 min at RT. Assay plates were then transferred to a FLIPR Tetra plate reader (Molecular Devices). Dye fluorescence was then measured every 3 sec for a total of 10 min.

mPTP Rat liver pIC50 [1] | mPTP Rat brain pIC50 [2] | mPTP rat brain mitochondria pIC50 ([2]; Fluo5N fluorescence at 10 min after 75 μM Ca2+) | SMILES
6.54 | 8.09 | – | CC(CNC(=O)c1ncc(Cl)c(=O)[nH]1)(Cc1ccc(F)cc1)C1CC1 (single isomer, unassigned) [Example 263, 5-Chloro-N-[2-cyclopropyl-3-(4-fluorophenyl)-2-methylpropyl]-4-oxo-3H-pyrimidine-2-carboxamide]
6.09 | 7.29 | – | CC(CNC(=O)c1ncc(Cl)c(=O)[nH]1)(Cc1ccc(F)cc1)C1CC1 (single isomer, unassigned) [Example 264, 5-Chloro-N-[2-cyclopropyl-3-(4-fluorophenyl)-2-methylpropyl]-4-oxo-3H-pyrimidine-2-carboxamide]
6.55 | 7.32 | – | Cc1cnc(C(=O)NCC(C)(Cc2ccc(F)cc2)C2CC2)[nH]c1=O (single isomer, unassigned) [Example 267]
6.04 | 7.02 | – | Cc1cnc(C(=O)NCC(C)(Cc2ccc(F)cc2)C2CC2)[nH]c1=O (single isomer, unassigned) [Example 268]
6.78 | 7.73 | – | CC(CNC(=O)c1cc(O)no1)(Cc1ccc(F)cc1F)C1CC1 (single isomer, unassigned) [Example 269]
5.39 | 6.51 | – | CC(CNC(=O)c1cc(O)no1)(Cc1ccc(F)cc1F)C1CC1 (single isomer, unassigned) [Example 270]
6.83 | 7.59 | – | CC(CNC(=O)c1cc(O)no1)(Cc1ccc(F)cc1)C1CC1 (single isomer, unassigned) [Example 271]
4.52 | 6.35 | – | CC(CNC(=O)c1cc(O)no1)(Cc1ccc(F)cc1)C1CC1 (single isomer, unassigned) [Example 272]
6.50 | 7.92 | – | CC(CNC(=O)c1noc(=O)[nH]1)(Cc1ccc(F)cc1F)C1CC1 (single isomer, unassigned) [Example 273]
6.85 | 8.5 | – | CC(CNC(=O)c1noc(=O)[nH]1)(Cc1ccc(F)cc1F)C1CC1 (single isomer, unassigned) [Example 274]
6.75 | 8.57 | highest activity | CC(CNC(=O)c1noc(=O)[nH]1)(Cc1ccc(F)cc1)C1CC1 (single isomer, unassigned) [Example 275, N-(2-cyclopropyl-3-(4-fluorophenyl)-2-methylpropyl)-5-oxo-4,5-dihydro-1,2,4-oxadiazole-3-carboxamide]
5.82 | 7.27 | – | CC(CNC(=O)c1noc(=O)[nH]1)(Cc1ccc(F)cc1)C1CC1 (single isomer, unassigned) [Example 276, N-(2-cyclopropyl-3-(4-fluorophenyl)-2-methylpropyl)-5-oxo-4,5-dihydro-1,2,4-oxadiazole-3-carboxamide]
5.64 | 6.95 | – | O=C(NCC1(Cc2ccccc2)CCC1)c1cncc(O)n1 [Example 2, N-((1-benzylcyclobutyl)methyl)-6-hydroxypyrazine-2-carboxamide]
6.02 | 6.89 | – | Cc1ncc(C(=O)NCC2(Cc3ccccc3)CCC2)cc1O [Example 3, N-((1-benzylcyclobutyl)methyl)-5-hydroxy-6-methylnicotinamide]
5.77 | 6.56 | – | Cc1c(O)cncc1C(=O)NCC1(Cc2ccccc2)CCC1 [Example 4, N-((1-benzylcyclobutyl)methyl)-5-hydroxy-4-methylnicotinamide]
5.61 | 6.72 | – | O=C(NCC1(Cc2ccccc2)CCC1)c1cnn[nH]1 [Example 5, N-((1-benzylcyclobutyl)methyl)-1H-1,2,3-triazole-5-carboxamide]
5.97 | 7.42 | – | O=C(NCC1(Cc2ccccc2)CCC1)c1nccc(=O)[nH]1 [Example 7, N-((1-benzylcyclobutyl)methyl)-6-oxo-1,6-dihydropyrimidine-2-carboxamide]
6.32 | 7.40 | – | O=C(NCC1(Cc2ccccc2)CCC1)c1nc(=O)[nH][nH]1 [Example 8, N-((1-benzylcyclobutyl)methyl)-5-oxo-2,5-dihydro-1H-1,2,4-triazole-3-carboxamide]
6.14 | 7.33 | – | Cc1cnc(C(=O)NCC2(Cc3ccccc3)CCC2)[nH]c1=O [Example 9, N-((1-benzylcyclobutyl)methyl)-5-methyl-6-oxo-1,6-dihydropyrimidine-2-carboxamide]
6.58 | 7.42 | – | Cn1nc(C(=O)NCC2(Cc3ccccc3)CCC2)[nH]c1=O [Example 10, N-((1-benzylcyclobutyl)methyl)-1-methyl-5-oxo-4,5-dihydro-1H-1,2,4-triazole-3-carboxamide]
5.18 | 6.48 | – | CN(CC1(Cc2ccccc2)CCC1)C(=O)c1cncc(O)n1 [Example 11, N-((1-benzylcyclobutyl)methyl)-6-hydroxy-N-methylpyrazine-2-carboxamide]
5.70 | 7.08 | – | CC(C)(CNC(=O)c1cncc(O)n1)Cc1ccccc1 [Example 12, N-(2,2-dimethyl-3-phenylpropyl)-6-hydroxypyrazine-2-carboxamide]
5.63 | 6.94 | – | CCn1nc(C(=O)NCC2(Cc3ccccc3)CCC2)[nH]c1=O [Example 14, N-((1-benzylcyclobutyl)methyl)-1-ethyl-5-oxo-4,5-dihydro-1H-1,2,4-triazole-3-carboxamide]
5.55 | 7.04 | – | O=C(NCC1(Cc2ccccc2)CCCC1)c1cncc(=O)[nH]1 [Example 18, N-((1-benzylcyclopentyl)methyl)-6-oxo-1,6-dihydropyrazine-2-carboxamide]
5.41 | 7.35 | – | Cc1ccccc1CC1(CNC(=O)c2cncc(=O)[nH]2)CCC1 [Example 19, N-((1-(2-methylbenzyl)cyclobutyl)methyl)-6-oxo-1,6-dihydropyrazine-2-carboxamide]
6.44 | 7.55 | – | Cn1nc(C(=O)NCC2(Cc3ccccc3F)CCC2)[nH]c1=O [Example 20, N-((1-(2-fluorobenzyl)cyclobutyl)methyl)-1-methyl-5-oxo-4,5-dihydro-1H-1,2,4-triazole-3-carboxamide]
6.09 | 7.63 | – | Cn1nc(C(=O)NCC2(Cc3c(F)cccc3F)CCC2)[nH]c1=O [Example 21, N-((1-(2,6-difluorobenzyl)cyclobutyl)methyl)-1-methyl-5-oxo-4,5-dihydro-1H-1,2,4-triazole-3-carboxamide]
6.64 | 7.37 | – | CC(NC(=O)c1nn(C)c(=O)[nH]1)C1(Cc2ccccc2)CCC1 (stereo not shown) [Example 23, N-(1-(1-benzylcyclobutyl)ethyl)-1-methyl-5-oxo-4,5-dihydro-1H-1,2,4-triazole-3 carboxamide]

SMILES | mPTP Rat liver pIC50 [1] | mPTP Rat brain pIC50 [2] | mPTP rat brain mitochondria pIC50 ([2]; Fluo5N fluorescence at 10 min after 75 μM Ca2+)
O=C(NCC1(Cc2ccccc2)CCC1)c1cncc(O)c1 [Example 1, N-((1-benzylcyclobutyl)methyl)-5-hydroxynicotinamide] | 6.10 | 7.27 | –
O=C(NCC1(Cc2ccccc2F)CCC1)c1cncc(O)n1 [Example 13, N-((1-(2-fluorobenzyl)cyclobutyl)methyl)-6-hydroxypyrazine-2-carboxamide] | 5.33 | 7.74 | –
O=C(NCC1(Cc2c(F)cccc2F)CCC1)c1cncc(=O)[nH]1 [Example 15, N-((1-(2,6-difluorobenzyl)cyclobutyl)methyl)-6-oxo-1,6-dihydropyrazine-2-carboxamide] | 5.92 | 7.65 | –
O=C(NCC1(Cc2cccc(F)c2F)CCC1)c1cncc(=O)[nH]1 [Example 17, N-((1-(2,3-difluorobenzyl)cyclobutyl)methyl)-6-oxo-1,6-dihydropyrazine-2-carboxamide] | 6.05 | 6.96 | –
CC(c1ccccc1)C1(CNC(=O)c2nn(C)c(=O)[nH]2)CCC1 (stereo not shown) [Example 25, 1-methyl-5-oxo-N-((1-(1-phenylethyl)cyclobutyl)methyl)-4,5-dihydro-1H-1,2,4-triazole-3-carboxamide] | 6.42 | 7.37 | –

Source: patent US12491185B2, “Inhibitors of mPTP” (NRG Therapeutics Ltd, priority 2023, dated 2025)
